System: density of the trabecular bone in the proximal tibia of ovariectomized rats
Experiment: Bone studies in ovariectomized rats (bone density of proximal tibia by pQCT)
Design: species or system rat
Details: three-month-old ovariectomized female rats, once daily for 28 days, 0.1 mg/kg/animal/day p.o., pQCT ex vivo
Protocol: Three-month-old female rats are ovariectomized and treated once daily with the test compound immediately after the operation for 28 days. The administration is carried out subcutaneously in arachis oil/ethanol or it is carried out perorally. The animals are sacrificed on the day after the last administration, and tibiae as well as uteri are removed. The uteri are weighed, fixed and worked up for histological studies. The determination of the bone density is carried out ex vivo on prepared long bones using pQCT (quantitative computer tomography). The measurements are performed at a distance of 4-6 mm from the ball of the joint of the proximal tibia.
By the ovariectomy, the density of the trabecular bone in the measured area is reduced by about 400 mg of Ca^2+/cm^3 to about 300 mg of Ca^2+/cm^3. By the treatment with a compound of general formula I according to this invention (dosage of 0.1 mg/kg/animal/day p.o.), the degradation of the bone density in the proximal tibia is prevented or inhibited.

## Oc1ccc(C2=C(C(F)(F)F)c3ccc(O)cc3OC2c2ccc(OCCN3CCCCC3)cc2)cc1 (single isomer, unassigned; (+)) [Example 1, (+)-7-Hydroxy-3-(4-hydroxyphenyl)-2-[4-(2-piperidin-1-ylethoxy)-penyl]-4(trifluoromethyl)-2H-1-benzopyran]
  bone protection in comparison to the control that was subjected to a sham operation: 73%

— US6844336B2, “4-fluoroalkyl-2h-benzopyrans with anti-estogenic activity” (Schering AG, priority 2000, dated 2005)
